Calls of active or inactive are those of the source. The rule behind the calls is not given here.
What was measured:
[1] = Antiproliferative activity against human MCF7 cells assessed as reduction in cell viability after 48 hrs by MTT assay; format: functional, cell-based; settings: MCF7, 48 h
[2] = Antiproliferative activity against human A549 cells assessed as reduction in cell viability after 48 hrs by MTT assay; format: functional, cell-based; settings: A549, 48 h
[3] = Antiproliferative activity against human PANC1 cells assessed as reduction in cell viability after 48 hrs by MTT assay; format: functional, cell-based; settings: PANC-1, 48 h
[4] = Permeability of the compound at pH 7.4 by PAMPA-based pION assay; format: ADME; settings: read-out: permeability
Homo sapiens = species on record: Homo sapiens; test: Inhibition of His-tagged full length Hsp90/GST-tagged Cdc37 middle domain (unknown origin) interaction at 50 uM after 1 hr by TR-FRET assay relative to control
PANC-1 [5] = test: Inhibition of Hsp90/Cdc37 interaction in human PANC1 cells assessed as downregulation of Akt after 24 hrs by Western blot analysis; format: cell-based
PANC-1 [6] = test: Induction of apoptosis in human PANC1 cells assessed as early apoptotic cells at 0.5 uM after 24 hrs by Annexin V-FITC/propidium iodide-based FACS analysis (reference value: 4.31 %); format: functional
PANC-1 [7] = test: Inhibition of Hsp90/Cdc37 interaction in human PANC1 cells assessed as induction of Hsp70 at 0.1 to 5 uM after 24 hrs by Western blot analysis; format: cell-based
PANC-1 [8] = test: Induction of apoptosis in human PANC1 cells assessed as viable cells at 1 uM after 24 hrs by Annexin V-FITC/propidium iodide-based FACS analysis (reference value: 94.63 %); format: functional; settings: PANC-1, 24 h, read-out: Activity
PANC-1 [9] = test: Induction of apoptosis in human PANC1 cells assessed as early apoptotic cells at 1 uM after 24 hrs by Annexin V-FITC/propidium iodide-based FACS analysis (reference value: 4.31 %); format: functional
PANC-1 [10] = test: Inhibition of Hsp90/Cdc37 interaction in human PANC1 cells assessed as downregulation of Cdk4 after 24 hrs by Western blot analysis; format: cell-based
PANC-1 [11] = test: Induction of apoptosis in human PANC1 cells assessed as necrotic cells at 1 uM after 24 hrs by Annexin V-FITC/propidium iodide-based FACS analysis (reference value: 0.75 %); format: functional
[12] = Cell cycle arrest in human PANC1 cells assessed as accumulation at S phase at 1 uM after 24 hrs by propidium iodide staining-based FACS analysis (reference value: 29.96 %); format: functional; settings: PANC-1
[13] = Cell cycle arrest in human PANC1 cells assessed as accumulation at G0/G1 phase at 1 uM after 24 hrs by propidium iodide staining-based FACS analysis (reference value: 36.48 %); format: functional; settings: PANC-1
PANC-1 [14] = test: Induction of apoptosis in human PANC1 cells after 24 hrs by Annexin V-FITC/propidium iodide-based FACS analysis; format: functional, cell-based
[15] = Cell cycle arrest in human PANC1 cells assessed as accumulation at G2/M phase at 0.5 uM after 24 hrs by propidium iodide staining-based FACS analysis (reference value: 33.56 %); format: functional; settings: PANC-1
PANC-1 [16] = test: Induction of apoptosis in human PANC1 cells assessed as late apoptotic cells at 0.5 uM after 24 hrs by Annexin V-FITC/propidium iodide-based FACS analysis (reference value: 0.30 %); format: functional
PANC-1 [17] = test: Induction of apoptosis in human PANC1 cells assessed as late apoptotic cells at 1 uM after 24 hrs by Annexin V-FITC/propidium iodide-based FACS analysis (reference value: 0.30 %); format: functional
[18] = Inhibition of His-tagged full length Hsp90/GST-tagged Cdc37 middle domain (unknown origin) interaction after 1 hr by TR-FRET assay; design: species or system Homo sapiens
PANC-1 [19] = test: Induction of apoptosis in human PANC1 cells assessed as viable cells at 0.5 uM after 24 hrs by Annexin V-FITC/propidium iodide-based FACS analysis (reference value: 94.63 %); format: functional; settings: PANC-1, 24 h, read-out: Activity
[20] = Cell cycle arrest in human PANC1 cells assessed as accumulation at G2/M phase at 1 uM after 24 hrs by propidium iodide staining-based FACS analysis (reference value: 33.56 %); format: functional; settings: PANC-1
[21] = Cell cycle arrest in human PANC1 cells assessed as accumulation at S phase at 0.5 uM after 24 hrs by propidium iodide staining-based FACS analysis (reference value: 29.96 %); format: functional; settings: PANC-1
[22] = Cell cycle arrest in human PANC1 cells assessed as accumulation at G0/G1 phase at 0.5 uM after 24 hrs by propidium iodide staining-based FACS analysis (reference value: 36.48 %); format: functional; settings: PANC-1
PANC-1 [23] = test: Induction of apoptosis in human PANC1 cells assessed as necrotic cells at 0.5 uM after 24 hrs by Annexin V-FITC/propidium iodide-based FACS analysis (reference value: 0.75 %); format: functional
[24] = Antiproliferative activity against paclitaxel-resistant human A549 cells assessed as reduction in cell viability after 48 hrs by MTT assay; format: functional, cell-based; settings: A549, 48 h

| Compound | Papp [4] [×10⁻⁶ cm/s] | inhibition (Homo sapiens) [%] | IC50 [1] [µM] | IC50 [2] [µM] | IC50 [3] [µM] | also measured |
| --- | --- | --- | --- | --- | --- | --- |
| CC1=C(O)C(=O)C=C2C1=CC=C1[C@@]2(C)CC[C@@]2(C)[C@@H]3C[C@](C)(C(=O)NCCN(C(C)C)C(C)C)CC[C@]3(C)CC[C@]12C | 35.2 | 81.6 | 1.26 | 0.8 | 1.05 |  |
| CCOC(=O)[C@]1(C)CC[C@]2(C)CC[C@]3(C)C4=CC=C5C(=CC(=O)C(O)=C5C)[C@]4(C)CC[C@@]3(C)[C@@H]2C1 |  | 54.8 | 1.76 | 1.97 | 1.56 |  |
| CCCOC(=O)[C@]1(C)CC[C@]2(C)CC[C@]3(C)C4=CC=C5C(=CC(=O)C(O)=C5C)[C@]4(C)CC[C@@]3(C)[C@@H]2C1 |  | 44.9 | 1.52 | 1.74 | 1.31 |  |
| CC1=C(O)C(=O)C=C2C1=CC=C1[C@@]2(C)CC[C@@]2(C)[C@@H]3C[C@](C)(C(=O)N4CCCC(C)C4)CC[C@]3(C)CC[C@]12C (stereo partly drawn) |  | 47.9 | 2.03 | 2.43 | 1.84 |  |
| CC1=C(O)C(=O)C=C2C1=CC=C1[C@@]2(C)CC[C@@]2(C)[C@@H]3C[C@](C)(C(=O)NCCN(C)C)CC[C@]3(C)CC[C@]12C | 45 | 93.6 | 0.64 | 1.08 | 1.23 | IC50 [18]: 5.63 µM |
| CC1=C(O)C(=O)C=C2C1=CC=C1[C@@]2(C)CC[C@@]2(C)[C@@H]3C[C@](C)(C(=O)NCCN4CCOCC4)CC[C@]3(C)CC[C@]12C | 11.4 | 77.2 | 1.34 | 1.27 | 1.35 |  |

Now from value to molecule, other results behind:

| Papp [4] [×10⁻⁶ cm/s] | inhibition (Homo sapiens) [%] | Compound | IC50 [1] [µM] | IC50 [2] [µM] | IC50 [3] [µM] | also measured |
| --- | --- | --- | --- | --- | --- | --- |
| 29 | 96.9 | CC1=C(O)C(=O)C=C2C1=CC=C1[C@@]2(C)CC[C@@]2(C)[C@@H]3C[C@](C)(C(=O)NCCN4CCN(C)CC4)CC[C@]3(C)CC[C@]12C | 1.02 | 1.01 | 1.12 | inhibition (PANC-1 [5]): Dose-dependent effect; Activity (PANC-1 [6]): 8.37%; inhibition (PANC-1 [7]): Active; viability at 1 µM (PANC-1 [8]): 64.1%; Activity (PANC-1 [9]): 31.01%; inhibition (PANC-1 [10]): Dose-dependent effect; Activity (PANC-1 [11]): 2.31%; Activity [12]: 18.7%; Activity [13]: 55.4%; Activity (PANC-1 [14]): Dose-dependent effect; Activity [15]: 32%; Activity (PANC-1 [16]): 0.4%; Activity (PANC-1 [17]): 2.61%; IC50 [18]: 4.71 µM; viability at 0.5 µM (PANC-1 [19]): 90%; Activity [20]: 25.9%; Activity [21]: 21.4%; Activity [22]: 46.6%; Activity (PANC-1 [23]): 1.27%; IC50 [24]: 0.45 µM |
|  | 60 | CCCNC(=O)[C@]1(C)CC[C@]2(C)CC[C@]3(C)C4=CC=C5C(=CC(=O)C(O)=C5C)[C@]4(C)CC[C@@]3(C)[C@@H]2C1 | 2.04 | 2.49 | 2.37 |  |
|  | 54.8 | CC1=C(O)C(=O)C=C2C1=CC=C1[C@@]2(C)CC[C@@]2(C)[C@@H]3C[C@](C)(C(=O)N4CCCCC4)CC[C@]3(C)CC[C@]12C | 1.89 | 1.92 | 2.29 |  |
|  | 69 | CCNC(=O)[C@]1(C)CC[C@]2(C)CC[C@]3(C)C4=CC=C5C(=CC(=O)C(O)=C5C)[C@]4(C)CC[C@@]3(C)[C@@H]2C1 | 1.43 | 2.08 | 1.82 |  |
|  | 60 | CC1=C(O)C(=O)C=C2C1=CC=C1[C@@]2(C)CC[C@@]2(C)[C@@H]3C[C@](C)(C(=O)NC(C)C)CC[C@]3(C)CC[C@]12C | 2.55 | 2.64 | 2.04 |  |
|  | 51.5 | CC1=C(O)C(=O)C=C2C1=CC=C1[C@@]2(C)CC[C@@]2(C)[C@@H]3C[C@](C)(C(=O)OC(C)C)CC[C@]3(C)CC[C@]12C | 1.32 | 2.58 | 1.36 |  |
